The target in the test is T1, CAMK2A (CaMKII alpha) (Homo sapiens, UniProt Q9UQM7).
T1 construct: purchased Thermo Fisher Scientific (Life Technologies) SelectScreen
Put plainly: SelectScreen Z'LYTE. In kind it is biochemical. A digest of the protocol:
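SelectScreen broad panel; activity (Z'LYTE, Adapta) plus binding formats. ATP: Km app for CSF1R Z'LYTE; 10 for CAMK1 Adapta. Readout = % per kinase.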

By inhibition is commonly meant the change of the read-out against control, counted positive when it falls.

T1 sequence (Q9UQM7 whole entry): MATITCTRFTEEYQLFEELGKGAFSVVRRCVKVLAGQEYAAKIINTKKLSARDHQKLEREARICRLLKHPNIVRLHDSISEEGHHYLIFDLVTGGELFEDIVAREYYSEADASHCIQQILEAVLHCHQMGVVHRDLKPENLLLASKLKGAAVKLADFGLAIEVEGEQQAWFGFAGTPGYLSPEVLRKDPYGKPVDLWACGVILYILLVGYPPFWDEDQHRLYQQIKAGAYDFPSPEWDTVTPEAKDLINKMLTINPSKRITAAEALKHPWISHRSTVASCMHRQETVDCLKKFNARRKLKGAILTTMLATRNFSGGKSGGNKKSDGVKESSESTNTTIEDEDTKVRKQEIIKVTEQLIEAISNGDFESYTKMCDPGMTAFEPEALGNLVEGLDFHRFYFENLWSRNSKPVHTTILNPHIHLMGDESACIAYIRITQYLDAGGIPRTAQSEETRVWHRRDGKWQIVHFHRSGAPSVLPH

Regarding `CN(C(=O)CN1CCOCC1)c1ccc2sc3c(-c4cccc5c(=O)cc(N6CC7CCC(C6)O7)oc45)cccc3c2c1` [NU5455], the inhibition at 1 µM is -0.6%.

(Values after publication PMC6934184, “Selective DNA-PKcs inhibition extends the therapeutic index of localized radiotherapy and chemotherapy” (The Journal of Clinical Investigation, 2019).)
